Reference: patent publication US7078395B1, “Methods for treating or preventing cancer by preventing, inhibiting or arresting cell cycling” (priority 1999, dated 2006)
Several values for one entry are separate records, joined by “and”; a condition that tells them apart may be missing. Equal entries are not always repeated.

Legend:
[1] = tested on: MCF-7 breast cancer cells; assay: Irreversible inhibition of cell growth, Stage 1 and Stage 2 (Coulter cell counter); format: cell-based; details: for effect on cell growth compared with controls, Stage 1: 5 μm and 1 μm; for effect on cell growth compared with controls, Stage 1 / cell numbers, % of the control cell number, Stage 1: 6 days; for effect on cell numbers, Stage 2 (irreversible growth inhibition): re-seeded after 6-day treatment, further 6 days without drug
Experimental: MCF-7 breast cancer cells were seeded into multi-well culture plates at a density of 10^5 cells/well. Cells were allowed to attach and grown until about 30% confluent when they were treated as follows:
Cells were grown for 6 days in growth medium containing the above drugs with changes of medium/drug every 3 days. At the end of this period cell numbers were counted using a Coulter cell counter.
After treatment of cells for a 6-day period with the above drugs cells were re-seeded at a density of 10^4 Cells/well. No further treatments were added. Cells were allowed to continue to grow for a further 6 days in the presence of growth medium. At the end of this period cell numbers were again counted.
Stages 1 and 2 described above were repeated using Control—no treatment, EMATE 20 μM and EMATE 5 μM.
MCF-7 breast cancer cells were seeded into multi-well culture plates at a density of 10^5 cells/well. Cells were allowed to attach and grown until about 30% confluent when they were treated as follows: • Control—no treatment • Compound of Interest (COI) 20 μM
Cells were grown for 6 days in growth medium containing the COI with changes of medium/COI every 3 days. At the end of this period cell numbers were counted using a Coulter cell counter.
After treatment of cells for a 6-day period with the COI cells were re-seeded at a density of 10^4 cells/well. No further treatments were added. Cells were allowed to continue to grow for a further 6 days in the presence of growth medium. At the end of this period cell numbers were again counted.

MCF7 cells [2] = assay: Proportion of cells in mitosis (PI stained cytospins, confocal microscopy); format: cell-based; details: 24 hours (control 4%)
Experimental: To determine the proportion of cells in mitosis, drug treated cells were collected by trypsinisation and cytospins prepared. Cells were fixed in ice cold methanol for 5 minutes, air dried and DNA was stained using propidium iodide (PI) (0.1 mg/ml in phosphate buffered saline (PBS) containing 10% (v/v) newborn calf serum and 0.05% (w/v) sodium azide). Cells were analysed by confocal microscopy using a Zeiss Axiovert 100 M microscope equipped with the LSM 510 confocal system (Zeiss, Jena, Germany).
Effect of estrone derivatives on mitosis in MCF7 cells. MCF7 cells were treated with the indicated compounds for 24 hours. Cells were recovered by trypsinisation and cytospins prepared. DNA was stained with PI and cells in mitosis (i.e., with condensed chromosomes) determined as a percentage of total cells.

[3] = tested on: MCF7, ZR-75-1, CAL51 and CAMA1 cells; assay: Microtitre plate growth inhibition assay (FIG. 14); format: cell-based
ZR-75-1 cells [4] = assay: TUNEL assay; format: cell-based; details: ZR-75-1, 500 nM for 72 hours
Experimental: (§1) DNA content was determined by flow cytometric analysis of propidium iodide stained cells and TdT-mediated dUTP-nick end labelling (TUNEL), respectively, as described (20). The proportion of cells in G2/M phase of the cell cycle was calculated as a proportion of cells with […] DNA content. The proportion of cells with <G1 DNA content was calculated as a percentage of total cells.
(§2) We used the TUNEL assay to confirm that the cell death detected by flow cytometry of PI stained cells was due to apoptosis. Following exposure to 2-EtEMATE (500 nM for 72 hours) there was a significant increase in the proportion of CAL51 and CAMA1 cells undergoing apoptosis (60% and 37% TUNEL positive cells, respectively) (FIG. 16). By contrast, there was only a modest increase in TUNEL positivity in MCF7 or ZR-75-l cells (7% and 10%, respectively) treated with 2-EtEMATE at this concentration.

CAMA1 cells [5] = assay: TUNEL assay; format: cell-based; details: CAMA1, 500 nM for 72 hours
Experimental: as §1, §2

CAL51 cells [6] = assay: TUNEL assay; format: cell-based; details: CAL51, 500 nM for 72 hours
Experimental: as §1, §2

MCF7 cells [7] = assay: TUNEL assay; format: cell-based; details: MCF7, 500 nM for 72 hours
Experimental: as §1, §2

ZR-75-1 cells [8] = assay: DNA content by flow cytometry of propidium iodide stained cells; format: cell-based; details: ZR-75-1, 500 nM
Experimental: (§3) MCF7, CAL51, CAMA1 and ZR-75-1 breast cancer derived cell lines were obtained from ATCC (MCF7, CAMA1, ZR-75-1) or from the Dutrillaux laboratory (CAL51) (22) and maintained in Dulbecco's modified Eagle's medium (DMEM) supplemented with 10% (v/v) fetal calf serum and antibiotics.
as §1

CAMA1 cells [9] = assay: as above; format: cell-based; details: CAMA1, 500 nM
Experimental: as §3, §1

CAL51 cells [10] = assay: as above; format: cell-based; details: CAL51, 500 nM
Experimental: as §3, §1

MCF7 cells [11] = assay: as above; format: cell-based; details: MCF7, 500 nM
Experimental: as §3, §1

[12] = tested on: nitrosomethylurea-induced mammary tumours; assay: Growth of NMU-induced mammary tumours in intact rats; format: in vivo, rat; details: 20 mg/kg/day, p.o., 11 days, individual animals
Experimental: The effect of 2-MeOEMATE on mammary tumour growth was examined in a preliminary study using Ludwig rats (Harlan Olac, Bicester, UK) in which tumours were induced by inoculation of NMU. Tumour development was monitored regularly and when 0.5-1.0 cm^3 in volume, animals received vehicle (propylene glycol, 200 μl/day, p.o.), 2-MeOEMATE (20 mg/kg/day, p.o.) or 2-MeOE1 (20 mg/kg/day, p.o.) daily for an 11 day period. Tumour length and width was measured with callipers and tumour volumes calculated as described (21).

[13] = tested on: MCF-7 breast cancer cells; assay: Cell Titer 96 cell proliferation assay, 4-day drug exposure; format: cell-based; details: 4 days
Experimental: (§4) MCF-7 (ER+) and MDA-MB-231 (ER−) breast cancer cells were obtained from the American Type Culture Collection (Rockville, Md.). Cells were routinely cultured in 25 cm^2 culture flasks in Eagle's minimum essential medium (EMEM) with Hepes buffer (20 mM). This medium was supplemented with L-glutamine (2 mM), sodium hydrogen carbonate (10 mM), 1% non-essential amino acids and 5% (v/v) foetal calf serum (FCS). Before adding test compounds, cells were washed with phosphate-buffered saline (PBS) and treatments added in phenol-red free medium containing 2% stripped FCS and supplements. The effects of 2-MeOE1 or 2-MeOEMATE on the growth of MCF-7 cells was assessed using a Cell Titer 96 cell proliferation assay (Promega, Southampton, Hants, UK) according to the manufacturers' instructions. For this, cells (5000 per well) were cultured in medium containing phenol-red and 10% FCS and were exposed to a drug for 4 days before the assay was performed. For MDA-MB-231 cells, cell numbers were determined using a Coulter counter.

[14] = tested on: MCF-7 breast cancer cells; assay: Cell morphology by photomicrographs; format: cell-based
Experimental: as §4
Photomicrographs of control and treated cells were taken under normal conditions of light and exposure using an Olympus SL35 Type 12 camera under an Olympus CK2 microscope (×100 magnification).

[15] = tested on: MCF-7 breast cancer cells; details: reported by Seegers et al. (8); cited from earlier work
B16 melanoma = details: 100 mg/kg, p.o., every other day, 12 day, CH3 mice (10); cited from earlier work
Meth A sarcoma = details: 100 mg/kg, p.o., every other day, 12 day, CH3 mice (10); cited from earlier work
[16] = tested on: MDA-MB-435 breast cancer cells; details: oral, 75 mg/kg/day for 29 days, SCID mice (11); cited from earlier work
[17] = rats, oral (16); cited from earlier work

## CCc1cc2c(cc1O)CC[C@@H]1[C@@H]2CC[C@]2(C)C(=O)CC[C@@H]12 [2-EtE1, 2-Ethylestrone, reference compound]
[1]
  effect on cell growth compared with controls, Stage 1: little effect on cell growth
  effect on cell numbers, Stage 2 (irreversible growth inhibition): little effect on cell numbers
MCF7 cells [2]; 500 nM
  mitotic cells, percentage of total cells: 4%
MCF7 cells [2]; 5 μM
  mitotic cells, percentage of total cells: 6%

## CCc1cc2c(cc1OS(N)(=O)=O)CCC1C2CCC2(C)C(=O)CCC12 (stereo not shown) [2-EtEMATE, 2-Ethylestrone-3-O-sulfamate]
[3]
  lowest dose that gave significant growth inhibition in each cell line: 500 nM
[1]; 1 m (so in the source)
  cell numbers, % of the control cell number, Stage 1: 50%
[1]; 5 μm
  cell numbers, % of the control cell number, Stage 1: 36%
[1]
  effect on cell numbers, Stage 2 (irreversible growth inhibition): severely growth restricted
ZR-75-1 cells [4]
  TUNEL positive cells: 10%
CAMA1 cells [5]
  TUNEL positive cells: 37%
CAL51 cells [6]
  TUNEL positive cells: 60%
MCF7 cells [7]
  TUNEL positive cells: 7%
ZR-75-1 cells [8]; 24 hours
  <G1 DNA content, percent of total cells: 1%
  G1/S, percentage of total cells with a 2N to 4N DNA content: 84%
  G2/M, percentage of total cells with a 2N to 4N DNA content: 15%
ZR-75-1 cells [8]; 48 hours
  <G1 DNA content, percent of total cells: 6%
  G1/S, percentage of total cells with a 2N to 4N DNA content: 60%
  G2/M, percentage of total cells with a 2N to 4N DNA content: 40%
ZR-75-1 cells [8]; 72 hours
  <G1 DNA content, percent of total cells: 12%
  G1/S, percentage of total cells with a 2N to 4N DNA content: 37%
  G2/M, percentage of total cells with a 2N to 4N DNA content: 60% and 63%
ZR-75-1 cells [8]; 96 hours
  <G1 DNA content, percent of total cells: 9%
  G1/S, percentage of total cells with a 2N to 4N DNA content: 20%
  G2/M, percentage of total cells with a 2N to 4N DNA content: 80%
CAMA1 cells [9]; 24 hours
  <G1 DNA content, percent of total cells: 4%
  G1/S, percentage of total cells with a 2N to 4N DNA content: 33%
CAMA1 cells [9]; 48 hours
  <G1 DNA content, percent of total cells: 16%
  G1/S, percentage of total cells with a 2N to 4N DNA content: 25%
  G2/M, percentage of total cells with a 2N to 4N DNA content: 75%
CAMA1 cells [9]; 72 hours
  <G1 DNA content, percent of total cells: 36%
  G1/S, percentage of total cells with a 2N to 4N DNA content: 33%
  G2/M, percentage of total cells with a 2N to 4N DNA content: 67%
CAMA1 cells [9]; 96 hours
  G1/S, percentage of total cells with a 2N to 4N DNA content: 33%
  G2/M, percentage of total cells with a 2N to 4N DNA content: 67%
CAL51 cells [10]; 24 hours
  <G1 DNA content, percent of total cells: 2%
  G1/S, percentage of total cells with a 2N to 4N DNA content: 38%
CAL51 cells [10]; 48 hours
  <G1 DNA content, percent of total cells: 10%
  G1/S, percentage of total cells with a 2N to 4N DNA content: 18%
  G2/M, percentage of total cells with a 2N to 4N DNA content: 82%
CAL51 cells [10]; 72 hours
  <G1 DNA content, percent of total cells: 21%
  G1/S, percentage of total cells with a 2N to 4N DNA content: 32%
  G2/M, percentage of total cells with a 2N to 4N DNA content: 68%
CAL51 cells [10]; 96 hours
  G1/S, percentage of total cells with a 2N to 4N DNA content: 23%
  G2/M, percentage of total cells with a 2N to 4N DNA content: 77%
MCF7 cells [11]; 24 hours
  <G1 DNA content, percent of total cells: 5%
  G1/S, percentage of total cells with a 2N to 4N DNA content: 63%
  G2/M, percentage of total cells with a 2N to 4N DNA content: 37%
MCF7 cells [11]; 48 hours
  <G1 DNA content, percent of total cells: 5%
  G1/S, percentage of total cells with a 2N to 4N DNA content: 38%
MCF7 cells [11]; 72 hours
  <G1 DNA content, percent of total cells: 12%
  G1/S, percentage of total cells with a 2N to 4N DNA content: 34%
  G2/M, percentage of total cells with a 2N to 4N DNA content: 66%
MCF7 cells [11]; 96 hours
  <G1 DNA content, percent of total cells: 8%
  G1/S, percentage of total cells with a 2N to 4N DNA content: 29%
  G2/M, percentage of total cells with a 2N to 4N DNA content: 71%
MCF7 cells [2]; 500 nM
  mitotic cells, percentage of total cells: 29%
MCF7 cells [2]; 5 μM
  mitotic cells, percentage of total cells: 49%

## COc1cc2c(cc1O)CC[C@@H]1[C@@H]2CC[C@]2(C)C(=O)CC[C@@H]12 [2-MeOE1, 2-methoxyoestrone, reference compound]
[12]
  reduction in tumour volume: little effect on tumour growth and no change in tumour volume and 25%
[1]
  effect on cell growth compared with controls, Stage 1: little effect on cell growth
  effect on cell numbers, Stage 2 (irreversible growth inhibition): little effect on cell numbers
[13]; 0.1 μM
  inhibition of proliferation of MCF-7 cells: little effect
[13]; 1.0 μM
  inhibition of proliferation of MCF-7 cells: little effect
[13]; 10 μM
  inhibition of proliferation of MCF-7 cells: 19%
[14]; 1 μM, 24 h
  effect on cell morphology: little effect on cell morphology

## COc1cc2c(cc1O)CC[C@@H]1[C@@H]2CC[C@]2(C)[C@@H](O)CC[C@@H]12 [2-MeOE2, 2-methoxyoestradiol]
[15]
  concentrations cytotoxic to MCF-7 breast cancer cells: ≥ 1 μm
B16 melanoma
  reduction of tumour growth: 83%
Meth A sarcoma
  reduction of tumour growth: 57%
[16]
  reduction of tumour volumes compared with untreated controls: 60%
  toxic side effects: No toxic side effects were detected

## CC12CCC3c4ccc(OS(N)(=O)=O)cc4CCC3C1CCC2=O (stereo not shown) [EMATE, oestrone-3-O-sulphamate]
[17]
  oral uterotrophic activity relative to estradiol: 100 times
[1]; 5 μM
  cell number, Stage 1: EMATE 5 μM = 139% control
  cell number, Stage 2: EMATE 5 μM = 98% control
[1]; 20 μM
  cell number, Stage 1: EMATE 20 μM = 119% control
  cell number, Stage 2: EMATE 20 μM = 103% control
[14]; 10 μM
  effect on cell morphology: did not affect cell morphology

## C[C@]12CC[C@@H]3c4ccc(O)cc4CC[C@H]3[C@@H]1CCC2=O [Oestrone]
[14]; 10 μM
  effect on cell morphology: did not affect cell morphology
